Experimental data from US20250042889A1, “3CLPRO PROTEASE INHIBITOR” (SHANGHAI QILU PHARMACEUTICAL RESEARCH AND DEVELOPMENT …, priority 2021, published 2025).

Target: SARS-COV-2 3CLpro/Mpro protease (Severe acute respiratory syndrome coronavirus 2 (2019-nCoV) (SARS-CoV-2), UniProt P0DTD1)
Assay: Inhibitory effect on SARS-COV-2 3CLpro/Mpro protease by fluorescence resonance energy transfer
Assay type: biochemical
Details: activity intervals A-D, read-out: IC50 (nM), Inhibition on SARS-CoV-2 3CLpro/Mpro protease

Molecule `O=C(c1cc(Br)cc([N+](=O)[O-])c1N[C@@H]1CCN(C(=O)c2cncc3ccccc23)C1)N1CCCCC1` [Example 12, (R)-(5-bromo-2-((1-(isoquinolin-4-carbonyl)pyrrolidin-3-yl)amino)-3-nitrophenyl)(piperidin-1-yl)methanone] has an IC50 of 10 to 50 nM.
Molecule `O=C(c1cc(Br)cc([N+](=O)[O-])c1N[C@@H]1CCCN(C(=O)c2cncc3ccccc23)C1)N1CCCCC1` [Example 13, (R)-(5-bromo-2-((1-(isoquinolin-4-carbonyl)piperidin-3-yl)amino)-3-nitrophenyl)(piperidin-1-yl)methanone] has an IC50 of less than 10 nM.
`O=C(N[C@H]1CCCC[C@H]1Nc1c(C(=O)N2CCCCC2)cc(Br)cc1[N+](=O)[O-])c1cncc(Br)c1` [Example 14] was tested, and the IC50 was 10 to 50 nM.
Work on `O=C(c1cc(Br)cc([N+](=O)[O-])c1N[C@@H]1CCCN(C(=O)c2cncc3ccccc23)C1)N1CC2CC2C1` (stereo partly drawn) [Example 15, ((3R)-3-((2-(3-azabicyclo[3.1.0]hexan-3-carbonyl)-4-bromo-6-nitrophenyl)amino)piperidin-1-yl)(isoquinolin-4-yl)methanone] yielded an IC50 of 10 to 50 nM.
For `O=C(N[C@H]1CCCC[C@H]1Nc1c(C(=O)N2CCC(F)(F)CC2)cc(Br)cc1[N+](=O)[O-])c1cc(=O)[nH]c2ccccc12` [Example 16, N-((1S,2R)-2-((4-bromo-2-(4,4-difluoropiperidin-1-carbonyl)-6-nitrophenyl)amino)cyclohexyl)-2-oxo-1,2-dihydroquinolin-4-formamide], the IC50 was 10 to 50 nM.
`C[C@@H]1CN(C(=O)c2cc(Br)cc([N+](=O)[O-])c2N[C@@H]2CCCN(C(=O)c3cncc4[nH]ccc34)C2)C[C@H](C)O1` [Example 17] gave an IC50 of 10 to 50 nM.
`C[C@@H]1CN(C(=O)c2cc(Br)cc([N+](=O)[O-])c2N[C@@H]2CCCN(C(=O)C3CCNC(=O)C3)C2)C[C@H](C)O1` (stereo partly drawn) [Example 18, 4-((R)-3-((4-bromo-2-((2R,6S)-2,6-dimethylmorpholin-4-carbonyl)-6-nitrophenyl)amino)piperidin-1-carbonyl)piperidin-2-one] gave an IC50 of 100 to 200 nM.
Work on `CNc1cncc(C(=O)N2CCC[C@@H](Nc3c(C(=O)N4CCC(N5CCOCC5)CC4)cc(Br)cc3[N+](=O)[O-])C2)c1` [Example 19, (R)-(5-bromo-2-((1-(5-(methylamino)nicotinoyl)piperidin-3-yl)amino)-3-nitrophenyl)(4-morpholinopiperidin-1-yl)methanone] yielded an IC50 of 10 to 50 nM.
With `CNc1cncc(C(=O)N2C[C@H](Nc3c(C(=O)N4C[C@@H](C)O[C@@H](C)C4)cc(Br)cc3[N+](=O)[O-])C3(CC3)C2)c1` [Example 20] the IC50 was 10 to 50 nM.
`CNc1cncc(C(=O)N2C[C@H](Nc3c(C(=O)N4C[C@@H](C)N[C@@H](C)C4)cc(Br)cc3[N+](=O)[O-])C3(CC3)C2)c1` [Example 21] gave an IC50 of 10 to 50 nM.
`CNc1cncc(C(=O)N2CCC[C@@H](Nc3c(C(=O)N4CCN(CC(F)(F)F)CC4)cc(Br)cc3[N+](=O)[O-])C2)c1` [Example 22] gave an IC50 of 10 to 50 nM.
With `CNc1cncc(C(=O)N2CCC[C@@H](Nc3c(C(=O)N4CCN(C(=O)C(F)(F)F)CC4)cc(Br)cc3[N+](=O)[O-])C2)c1` [Example 23, (R)-1-(4-(5-bromo-2-((1-(5-(methylamino)nicotinoyl)piperidin-3-yl)amino)-3-nitrobenzoyl)piperazin-1-yl)-2,2,2-trifluoroethan-1-one] the IC50 was 10 to 50 nM.
`O=C(c1cc[nH]c(=O)c1)N1CCC[C@@H](Nc2c(C(=O)N3CCC(F)(F)CC3)cc(Br)cc2[N+](=O)[O-])C1` [Example 24, (R)-4-(3-((4-bromo-2-(4,4-difluoropiperidin-1-carbonyl)-6-nitrophenyl)amino)piperidin-1-carbonyl)pyridin-2 (1H)-one] was tested, and the IC50 was 100 to 200 nM.
`O=C1CN(C(=O)c2cc(Br)cc([N+](=O)[O-])c2N[C@@H]2CCCC[C@@H]2NC(=O)c2cncc3cc(Cl)ccc23)CCN1` [Example 25, N-((1S,2R)-2-((4-bromo-2-nitro-6-(3-oxopiperazin-1-carbonyl)phenyl)amino)cyclohexyl)-7-chloroisoquinolin-4-formamide] was tested, and the IC50 was 10 to 50 nM.
In the case of `Cc1cc(C(=O)N2CCC[C@@H](Nc3c(C(=O)N4CCOCC4)cc(Br)cc3[N+](=O)[O-])C2)cc(=O)[nH]1` [Example 26, (R)-4-(3-((4-bromo-2-(morpholin-4-carbonyl)-6-nitrophenyl)amino)piperidin-1-carbonyl)-6-methylpyridin-2 (1H)-one], the IC50 is reported as 10 to 50 nM.
For `Cc1cc(C(=O)N2CCC[C@@H](Nc3c(C(=O)N4C[C@@H](C)O[C@@H](C)C4)cc(Br)cc3[N+](=O)[O-])C2)cc(=O)[nH]1` [Example 27, 4-((R)-3-((4-bromo-2-((2S,6R)-2,6-dimethylmorpholin-4-carbonyl)-6-nitrophenyl)amino)piperidin-1-carbonyl)-6-methylpyridin-2 (1H)-one], the IC50 was 10 to 50 nM.
For `O=C(c1cc(Br)cc([N+](=O)[O-])c1N[C@@H]1CCCN(C(=O)c2cncc3[nH]ccc23)C1)N1CCC(F)(F)CC1` [Example 28], the IC50 was 10 to 50 nM.
With `CNc1cncc(C(=O)N2CCC[C@@H](Nc3c(C(=O)N4CCN(C)CC4)cc(Br)cc3[N+](=O)[O-])C2)c1` [Example 29, (R)-(5-bromo-2-((1-(5-(methylamino)nicotinoyl)piperidin-3-yl)amino)-3-nitrophenyl)(4-methylpiperazin-1-yl)methanone] the IC50 was 10 to 50 nM.
Molecule `CNc1cncc(C(=O)N2CC(Nc3c(C(=O)N4CCCCC4)cc(Br)cc3[N+](=O)[O-])C(F)(F)C2)c1` (centres unmarked) [Example 32, (5-Bromo-2-((4,4-difluoro-1-(5-(methylamino)nicotinoyl)pyrrolidin-3-yl)amino)-3-nitrophenyl)(piperidin-1-yl)methanone] has an IC50 of 10 to 50 nM.
Molecule `C[C@H]1CCCN(C(=O)c2cc(Br)cc([N+](=O)[O-])c2N[C@@H]2CCCN(C(=O)[C@H]3CC(=O)N[C@@H](C)C3)C2)C1` [Example 33, (4R,6S)-4-((R)-3-((4-bromo-2-((S)-3-methylpiperidin-1-carbonyl)-6-nitrophenyl)amino)piperidin-1-carbonyl)-6-methylpiperidin-2-one] has an IC50 of 10 to 50 nM.
`CNc1cncc(C(=O)N2CCC[C@@H](Nc3c(C(=O)N4CCO[C@H](CF)C4)cc(Br)cc3[N+](=O)[O-])C2)c1` [Example 37] was tested, and the IC50 was 10 to 50 nM.
`O=C(c1cc(Br)cc([N+](=O)[O-])c1N[C@@H]1CCCN(C(=O)c2cncc3ccccc23)C1)N1CCOCC1` [Example 38] was tested, and the IC50 was less than 10 nM.
`O=C(c1cc(Br)cc([N+](=O)[O-])c1N[C@@H]1CCCN(C(=O)c2cncc3ccccc23)C1)N1CCCC1` [Example 39] was tested, and the IC50 was less than 10 nM.
`O=C(c1cc(Br)cc([N+](=O)[O-])c1N[C@@H]1CCN(C(=O)c2cncc3ccccc23)C1)N1CCCC1` [Example 40] showed an IC50 of 10 to 50 nM.
For `N#Cc1cncc(C(=O)N2CCC[C@@H](Nc3c(C(=O)N4CCCCC4)cc(Br)cc3[N+](=O)[O-])C2)c1` [Example 41], the IC50 was 10 to 50 nM.
With `Nc1cncc(C(=O)N2CCC[C@@H](Nc3c(C(=O)N4CCCCC4)cc(Br)cc3[N+](=O)[O-])C2)c1` [Example 42] the IC50 was 10 to 50 nM.
`Cc1cncc(C(=O)N2CCC[C@@H](Nc3c(C(=O)N4CCCCC4)cc(Br)cc3[N+](=O)[O-])C2)c1` [Example 43] gave an IC50 of 10 to 50 nM.
Molecule `O=C(c1cncc(Br)c1)N1CCC[C@@H](Nc2c(C(=O)N3CC4CC4C3)cc(Br)cc2[N+](=O)[O-])C1` (some centres unmarked) [Example 44] has an IC50 of less than 10 nM.
Work on `O=C(c1cncc(C2CC2)c1)N1CCC[C@@H](Nc2c(C(=O)N3CCCCC3)cc(Br)cc2[N+](=O)[O-])C1` [Example 45] yielded an IC50 of 10 to 50 nM.
`Cc1c(Br)cncc1C(=O)N1CCC[C@@H](Nc2c(C(=O)N3CCCCC3)cc(Br)cc2[N+](=O)[O-])C1` [Example 46] showed an IC50 of 10 to 50 nM.
Work on `O=C(c1cncc(Br)c1)N1CC[C@@H](Nc2c(C(=O)N3CCCCC3)cc(Br)cc2C(F)(F)F)C1` [Example 47] yielded an IC50 of 10 to 50 nM.
For `O=C(c1cc(Br)cc(C(F)(F)F)c1N[C@@H]1CCN(C(=O)c2cncc3ccccc23)C1)N1CCCCC1` [Example 48], the IC50 was 10 to 50 nM.
`O=C(c1cncc(Br)c1)N1CCC[C@@H](Nc2c(C(=O)N3CCC(F)(F)CC3)cc(Br)cc2C(F)(F)F)C1` [Example 49] gave an IC50 of 10 to 50 nM.
For `O=C(c1cncc(O)c1)N1CCC[C@@H](Nc2c(C(=O)N3CCC(F)(F)CC3)cc(Br)cc2[N+](=O)[O-])C1` [Example 50], the IC50 was 50 to 100 nM.
`O=C(c1cc(Br)cc([N+](=O)[O-])c1N[C@@H]1CCN(C(=O)c2cncc3cc(Cl)ccc23)C1)N1CC2CC2C1` (some centres unmarked) [Example 51] was tested, and the IC50 was 10 to 50 nM.
In the case of `O=C(c1cc(=O)[nH]c(=O)[nH]1)N1CCC[C@@H](Nc2c(C(=O)N3CCC(F)(F)CC3)cc(Br)cc2[N+](=O)[O-])C1` [Example 53], the IC50 is reported as 50 to 100 nM.
`O=C(c1cc(Br)cc([N+](=O)[O-])c1N[C@@H]1CCCN(C(=O)c2cc(=O)[nH]c3ccccc23)C1)N1CCC(F)(F)CC1` [Example 54] gave an IC50 of 10 to 50 nM.
`CNc1cncc(C(=O)N2CCC[C@@H](Nc3c(C(=O)N4CCO[C@H](C(F)F)C4)cc(Br)cc3[N+](=O)[O-])C2)c1` [Example 55] showed an IC50 of 10 to 50 nM.
For `O=C(c1cc(Br)cc([N+](=O)[O-])c1N[C@@H]1CCCN(C(=O)c2cnnc3ccccc23)C1)N1CCCCC1` [Example 56], the IC50 was 10 to 50 nM.
`N#Cc1cc(Cl)cc(C(=O)N2CCCCC2)c1N[C@@H]1CCCN(C(=O)c2cncc3ccccc23)C1` [Example 59] was tested, and the IC50 was 10 to 50 nM.
`O=C(c1cncnc1)N1CCC[C@@H](Nc2c(C(=O)N3CCCCC3)cc(Br)cc2[N+](=O)[O-])C1` [Example 60] showed an IC50 of 50 to 100 nM.
`O=C(c1cncc(OC(F)F)c1)N1CCC[C@@H](Nc2c(C(=O)N3CCCCC3)cc(Br)cc2[N+](=O)[O-])C1` [Example 61] showed an IC50 of 50 to 100 nM.
`O=C(c1cncc(Br)c1)N1CC[C@@H](Nc2c(C(=O)N3CCCCC3)cc(Br)cc2[N+](=O)[O-])C1` [Example 64] showed an IC50 of 10 to 50 nM.
`O=C(c1cncc(Br)c1)N1CCC[C@@H](Nc2c(C(=O)N3CCCC3)cc(Br)cc2[N+](=O)[O-])C1` [Example 65] gave an IC50 of 10 to 50 nM.
`O=C(c1cncc(Br)c1)N1CCC[C@@H](Nc2c(C(=O)N3CCCCC3)cc(Br)cc2C(F)(F)F)C1` [Example 66] gave an IC50 of 10 to 50 nM.
`O=C(c1cc(Br)cc(C(F)(F)F)c1N[C@@H]1CCCN(C(=O)c2cncc3ccccc23)C1)N1CCCCC1` [Example 67] gave an IC50 of 10 to 50 nM.
Work on `O=C(c1cncc(Br)c1)N1CC[C@@H](Nc2c(C(=O)N3CCCCC3)cc(Br)cc2C(F)(F)F)C1` [Example 68] yielded an IC50 of 50 to 100 nM.
